# PubChem BioAssay (NCI)
#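 Assay format: 96-well plates, 48-hour exposure. GI50: concentration for 50% inhibition of growth. Definition used: TGI = concentration required for complete inhibition of growth.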
# Key:
# Assay in all cases: NCI-60 cell line screen, 48 h
# RXF 393 renal = tested on: RXF 393 renal
# SF-295 CNS = tested on: SF-295 CNS
# HOP-92 NSCLC = tested on: HOP-92 NSCLC
# UO-31 renal = tested on: UO-31 renal
# SW-620 colon = tested on: SW-620 colon
# ACHN renal = tested on: ACHN renal
# UACC-62 melanoma = tested on: UACC-62 melanoma
# T-47D breast = tested on: T-47D breast
# SK-MEL-2 melanoma = tested on: SK-MEL-2 melanoma
# IGROV1 ovarian = tested on: IGROV1 ovarian
# MOLT-4 leukemia = tested on: MOLT-4 leukemia
# M14 melanoma = tested on: M14 melanoma
# A549 NSCLC = tested on: A549 NSCLC
# MDA-MB-435 = tested on: MDA-MB-435
# SK-OV-3 ovarian = tested on: SK-OV-3 ovarian
# TK-10 renal = tested on: TK-10 renal
# KM12 colon = tested on: KM12 colon
# 786-0 renal = tested on: 786-0 renal
# NCI-H522 lung = tested on: NCI-H522 lung
# OVCAR-3 ovarian = tested on: OVCAR-3 ovarian
# SF-268 CNS = tested on: SF-268 CNS
# SK-MEL-5 melanoma = tested on: SK-MEL-5 melanoma
# CAKI-1 renal = tested on: CAKI-1 renal
# PC-3 prostate = tested on: PC-3 prostate
# SF-539 CNS = tested on: SF-539 CNS
# LOX IMVI melanoma = tested on: LOX IMVI melanoma
# SR leukemia = tested on: SR leukemia
# SNB-19 CNS = tested on: SNB-19 CNS
# HCT-116 colon = tested on: HCT-116 colon
# NCI-H226 lung = tested on: NCI-H226 lung
# COLO 205 colon = tested on: COLO 205 colon
# MDA-MB-231 breast = tested on: MDA-MB-231 breast
# SN12C renal = tested on: SN12C renal
# HCC-2998 colon = tested on: HCC-2998 colon
# HT29 colon = tested on: HT29 colon
# OVCAR-4 ovarian = tested on: OVCAR-4 ovarian
# K-562 leukemia = tested on: K-562 leukemia
# OVCAR-8 ovarian = tested on: OVCAR-8 ovarian
# OVCAR-5 ovarian = tested on: OVCAR-5 ovarian
# UACC-257 melanoma = tested on: UACC-257 melanoma
# EKVX NSCLC = tested on: EKVX NSCLC
# HS 578T breast = tested on: HS 578T breast
# MCF7 breast = tested on: MCF7 breast
# DU-145 prostate = tested on: DU-145 prostate
# HOP-62 NSCLC = tested on: HOP-62 NSCLC
# BT-549 breast = tested on: BT-549 breast
# SNB-75 CNS = tested on: SNB-75 CNS
# SK-MEL-28 melanoma = tested on: SK-MEL-28 melanoma
# CCRF-CEM leukemia = tested on: CCRF-CEM leukemia
# HL-60(TB) leukemia = tested on: HL-60(TB) leukemia
# U251 CNS = tested on: U251 CNS
# RPMI-8226 leukemia = tested on: RPMI-8226 leukemia
# A498 renal = tested on: A498 renal
# HCT-15 colon = tested on: HCT-15 colon
# NCI-H460 lung = tested on: NCI-H460 lung
# NCI-H23 lung = tested on: NCI-H23 lung
# MALME-3M melanoma = tested on: MALME-3M melanoma
# NCI/ADR-RES ovarian = tested on: NCI/ADR-RES ovarian
smiles,measurement,setting,value
COC(=O)/C=C/c1cc(O)c2oc(-c3ccc(O)c(O)c3)c(C(=O)OC)c2c1,GI50,RXF 393 renal,0.523 µM
same,TGI,RXF 393 renal,4.84 µM
same,GI50,SF-295 CNS,3.13 µM
same,TGI,SF-295 CNS,11.7 µM
same,GI50,HOP-92 NSCLC,1.57 µM
same,TGI,HOP-92 NSCLC,11.3 µM
same,GI50,UO-31 renal,1.11 µM
same,TGI,UO-31 renal,10.6 µM
same,GI50,SW-620 colon,0.124 µM
same,TGI,SW-620 colon,14 µM
same,GI50,ACHN renal,0.361 µM
same,TGI,ACHN renal,10.4 µM
same,GI50,UACC-62 melanoma,0.802 µM
same,TGI,UACC-62 melanoma,5.96 µM
same,GI50,T-47D breast,0.577 µM
same,TGI,T-47D breast,9.48 µM
same,GI50,SK-MEL-2 melanoma,0.74 µM
same,TGI,SK-MEL-2 melanoma,13.2 µM
same,GI50,IGROV1 ovarian,0.543 µM
same,TGI,IGROV1 ovarian,11.5 µM
same,GI50,MOLT-4 leukemia,0.462 µM
same,TGI,MOLT-4 leukemia,7.11 µM
same,GI50,M14 melanoma,0.0698 µM
same,TGI,M14 melanoma,9.39 µM
same,GI50,A549 NSCLC,1.27 µM
same,TGI,A549 NSCLC,14.1 µM
same,GI50,MDA-MB-435,0.0295 µM
same,TGI,MDA-MB-435,0.108 µM
same,GI50,SK-OV-3 ovarian,1.13 µM
same,TGI,SK-OV-3 ovarian,15.6 µM
same,GI50,TK-10 renal,3.89 µM
same,TGI,TK-10 renal,16.9 µM
same,GI50,KM12 colon,0.439 µM
same,TGI,KM12 colon,9.38 µM
same,GI50,786-0 renal,3.67 µM
same,TGI,786-0 renal,16.3 µM
same,GI50,NCI-H522 lung,0.0472 µM
same,TGI,NCI-H522 lung,4.72 µM
same,GI50,OVCAR-3 ovarian,0.147 µM
same,TGI,OVCAR-3 ovarian,3.43 µM
same,GI50,SF-268 CNS,1.52 µM
same,TGI,SF-268 CNS,12.5 µM
same,GI50,SK-MEL-5 melanoma,0.221 µM
same,TGI,SK-MEL-5 melanoma,1.61 µM
same,GI50,CAKI-1 renal,1.42 µM
same,TGI,CAKI-1 renal,15 µM
same,GI50,PC-3 prostate,0.437 µM
same,TGI,PC-3 prostate,13.1 µM
same,GI50,SF-539 CNS,0.159 µM
same,TGI,SF-539 CNS,1.96 µM
same,GI50,LOX IMVI melanoma,0.367 µM
same,TGI,LOX IMVI melanoma,10.3 µM
same,GI50,SR leukemia,0.039 µM
same,TGI,SR leukemia,> 24.3 µM
same,GI50,SNB-19 CNS,0.356 µM
same,TGI,SNB-19 CNS,14.2 µM
same,GI50,HCT-116 colon,0.329 µM
same,TGI,HCT-116 colon,9.14 µM
same,GI50,NCI-H226 lung,3.85 µM
same,TGI,NCI-H226 lung,22.3 µM
same,GI50,COLO 205 colon,8.27 µM
same,TGI,COLO 205 colon,23.6 µM
same,GI50,MDA-MB-231 breast,0.927 µM
same,TGI,MDA-MB-231 breast,15.8 µM
same,GI50,SN12C renal,0.576 µM
same,TGI,SN12C renal,12.2 µM
same,GI50,HCC-2998 colon,2.09 µM
same,TGI,HCC-2998 colon,11.2 µM
same,GI50,HT29 colon,3.24 µM
same,TGI,HT29 colon,11.5 µM
same,GI50,OVCAR-4 ovarian,0.901 µM
same,TGI,OVCAR-4 ovarian,12 µM
same,GI50,K-562 leukemia,0.0511 µM
same,TGI,K-562 leukemia,26.9 µM
same,GI50,OVCAR-8 ovarian,0.521 µM
same,TGI,OVCAR-8 ovarian,13 µM
same,GI50,OVCAR-5 ovarian,3.56 µM
same,TGI,OVCAR-5 ovarian,16.5 µM
same,GI50,UACC-257 melanoma,2.83 µM
same,TGI,UACC-257 melanoma,16.5 µM
same,GI50,EKVX NSCLC,3.3 µM
same,TGI,EKVX NSCLC,16.6 µM
same,GI50,HS 578T breast,0.405 µM
same,TGI,HS 578T breast,9.18 µM
same,GI50,MCF7 breast,0.286 µM
same,TGI,MCF7 breast,9.75 µM
same,GI50,DU-145 prostate,0.369 µM
same,TGI,DU-145 prostate,12 µM
same,GI50,HOP-62 NSCLC,0.442 µM
same,TGI,HOP-62 NSCLC,12.7 µM
same,GI50,BT-549 breast,1.5 µM
same,TGI,BT-549 breast,11.9 µM
same,GI50,SNB-75 CNS,0.0376 µM
same,TGI,SNB-75 CNS,1.41 µM
same,GI50,SK-MEL-28 melanoma,1.92 µM
same,TGI,SK-MEL-28 melanoma,11.1 µM
same,GI50,CCRF-CEM leukemia,0.402 µM
same,TGI,CCRF-CEM leukemia,> 21.8 µM
same,GI50,HL-60(TB) leukemia,0.14 µM
same,TGI,HL-60(TB) leukemia,1.52 µM
same,GI50,U251 CNS,0.606 µM
same,TGI,U251 CNS,13.4 µM
same,GI50,RPMI-8226 leukemia,0.316 µM
same,TGI,RPMI-8226 leukemia,1.75 µM
same,GI50,A498 renal,1.95 µM
same,TGI,A498 renal,9.58 µM
same,GI50,HCT-15 colon,0.0672 µM
same,TGI,HCT-15 colon,11.2 µM
same,GI50,NCI-H460 lung,2.66 µM
same,TGI,NCI-H460 lung,18.1 µM
same,GI50,NCI-H23 lung,0.43 µM
same,TGI,NCI-H23 lung,7.81 µM
same,GI50,MALME-3M melanoma,0.397 µM
same,TGI,MALME-3M melanoma,14.4 µM
same,GI50,NCI/ADR-RES ovarian,0.134 µM
same,TGI,NCI/ADR-RES ovarian,6.63 µM
